Legend:
Test in all cases: relative viability (nuclei count vs DMSO), 5 days (fraction); higher = more cells survive
Cediranib + Linsitinib = compound: COc1cc2c(Oc3ccc4[nH]c(C)cc4c3F)ncnc2cc1OCCCN1CCCC1 [Cediranib] + C[C@]1(O)C[C@@H](c2nc(-c3ccc4ccc(-c5ccccc5)nc4c3)c3c(N)nccn32)C1 [Linsitinib] (partner 1 µM)
Summary of the method: (§1)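 Relative viability divides the nuclei count in treated wells by that in vehicle wells. Lung cancer cell lines were seeded in 1536-well plates, dosed by pin tool the next day, and fixed and stained after 5 days in one step with final 0.05% Triton X-100, 1% formaldehyde and 1 ug/ml Hoechst. Dosing was a single drug or a fixed anchor-drug dose plus five library-drug doses (not always all listed) in √10 steps, and values are medians of duplicate plates imaged at 4×.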

Cediranib + Olaparib = compound: COc1cc2c(Oc3ccc4[nH]c(C)cc4c3F)ncnc2cc1OCCCN1CCCC1 [Cediranib] + O=C(c1cc(Cc2n[nH]c(=O)c3ccccc23)ccc1F)N1CCN(C(=O)C2CC2)CC1 [Olaparib] (partner 8 µM)
Summary of the method: as §1

Halofuginone + Foretinib = compound: O=C(C[C@H]1NCCC[C@@H]1O)Cn1cnc2cc(Br)c(Cl)cc2c1=O (racemic) [Halofuginone] + COc1cc2c(Oc3ccc(NC(=O)C4(C(=O)Nc5ccc(F)cc5)CC4)cc3F)ccnc2cc1OCCCN1CCOCC1 [Foretinib] (partner 0.25 µM)
Summary of the method: as §1

Halofuginone + Alpelisib = compound: O=C(C[C@H]1NCCC[C@@H]1O)Cn1cnc2cc(Br)c(Cl)cc2c1=O (racemic) [Halofuginone] + Cc1nc(NC(=O)N2CCC[C@H]2C(N)=O)sc1-c1ccnc(C(C)(C)C(F)(F)F)c1 [Alpelisib] (partner 2 µM)
Summary of the method: as §1

Cell Line | relative viability (Cediranib + Linsitinib; first compound 0.04 µM) | relative viability (Cediranib + Linsitinib; first compound 0.1265 µM) | relative viability (Cediranib + Linsitinib; first compound 0.4 µM) | relative viability (Cediranib + Linsitinib; first compound 1.265 µM) | relative viability (Cediranib + Linsitinib; first compound 4 µM) | relative viability (Cediranib + Olaparib; first compound 0.04 µM) | relative viability (Cediranib + Olaparib; first compound 0.1265 µM) | relative viability (Cediranib + Olaparib; first compound 0.4 µM) | relative viability (Cediranib + Olaparib; first compound 1.265 µM) | relative viability (Cediranib + Olaparib; first compound 4 µM) | relative viability (Halofuginone + Foretinib; first compound 0.001 µM) | relative viability (Halofuginone + Foretinib; first compound 0.003162 µM) | relative viability (Halofuginone + Foretinib; first compound 0.01 µM) | relative viability (Halofuginone + Foretinib; first compound 0.03162 µM) | relative viability (Halofuginone + Foretinib; first compound 0.1 µM) | relative viability (Halofuginone + Alpelisib; first compound 0.001 µM) | relative viability (Halofuginone + Alpelisib; first compound 0.003162 µM) | relative viability (Halofuginone + Alpelisib; first compound 0.01 µM) | relative viability (Halofuginone + Alpelisib; first compound 0.03162 µM) | relative viability (Halofuginone + Alpelisib; first compound 0.1 µM)
Calu-6 | 0.881 | 0.971 | 0.938 | 0.854 | 1.06 | 0.592 | 0.566 | 0.599 | 0.582 | 0.56 | 0.961 | 0.95 | 0.925 | 0.472 | 0.109 | 1.16 | 1.01 | 0.94 | 0.362 | 0.17
ChaGo-K-1 |  |  |  |  |  | 0.403 | 0.307 | 0.403 | 0.424 | 0.41 | 0.999 | 0.915 | 0.93 | 0.881 | 0.786 |  |  |  |  | 
EBC-1 | 1.14 | 1.05 | 0.882 | 0.609 | 0.802 | 0.715 | 0.744 | 0.668 | 0.786 | 0.88 | 0.106 | 0.112 | 0.108 | 0.104 | 0.104 | 0.939 | 0.779 | 0.666 | 0.441 | 0.181
EKVX | 1.05 | 1.03 | 0.889 | 1 | 0.86 | 0.783 | 0.949 | 0.803 |  | 0.851 | 0.806 | 0.794 | 0.947 | 0.794 | 0.293 | 1.01 | 0.922 | 0.862 | 0.859 | 0.638
EMC-BAC-2 | 0.872 | 0.832 | 0.799 | 0.777 | 0.837 | 0.474 |  | 0.476 | 0.502 | 0.402 | 1.06 | 0.972 | 0.986 | 0.78 | 0.423 | 0.765 | 0.761 | 0.766 | 0.723 | 0.517
EPLC-272H | 1.17 |  | 1.16 | 1.18 | 1.29 | 0.896 | 0.831 | 0.8 | 0.964 | 0.688 | 0.792 | 0.742 | 0.736 | 0.78 | 0.72 | 1.04 | 0.893 | 0.866 | 1.02 | 0.798
H3255 | 1.04 | 1.04 | 0.89 | 0.898 | 0.912 | 0.524 | 0.503 | 0.564 | 0.643 | 0.542 | 0.748 | 0.849 | 0.825 | 1.01 | 0.856 | 0.664 | 0.619 | 0.558 | 0.683 | 0.606
HARA | 0.916 | 1.14 | 0.96 | 0.955 | 0.975 | 0.626 | 1.22 | 0.675 | 1.01 | 0.692 | 0.997 | 0.954 | 0.934 | 0.896 | 0.493 | 1.05 | 0.817 | 0.836 | 0.839 | 0.743
HCC-15 | 0.873 |  | 0.793 | 0.947 | 1.02 | 0.706 |  | 0.705 | 0.759 | 0.759 | 1.02 | 1.1 | 1.05 | 0.967 | 0.787 | 0.847 | 0.903 | 0.861 | 0.888 | 0.683
